Consider 18 molecules from US10745397B2, “1-Substituted 1,2,3,4-tetrahydro-1,7-naphthyridin-8-amine derivatives and their use as EP4 receptor antagonists” (TAKEDA PHARMACEUTICAL COMPANY LIMITED, priority 2015, dated 2020).

Usually inhibition stands for the relative decrease from the control value, in per cent. Low readings indicate little suppression, high ones strong suppression.

Assay [1] has as its target T1, hEP4 (C6 glioma cells overexpressing hEP4) (Homo sapiens, UniProt P35408).
T1 construct: host or cells: C6 glioma cells overexpressing hEP4
Kind of assay: hEP4 cell based assay (cAMP), inhibition of PGE2 induced cAMP, HTRF. The settings on record: 1 μM compound, PGE2 at EC80. The method, then:
The functional assay for hEP4 activation and inhibition was carried out via the quantitative determination of agonist, PGE2, induced cAMP response using HTRF in a competitive immunoassay (Cisbio dynamic 2 kit). NCEs at varying concentrations were evaluated for inhibition of PGE2 induced increase in cAMP. Briefly, C6 glioma cells overexpressing hEP4 (Takeda) were cultured in DMEM (low glucose, pyruvate), 10% FBS (Gibco) and PenStep. The cells were harvested on the day of the assay, washed with HBSS+10 mM HEPES (pH 7.4)+0.1% BSA buffer and pre-incubated with varying concentrations of NCE. Each reaction contained 7000 cells and NCEs in HBSS+10 mM HEPES+0.1% BSA assay buffer along with PDE inhibitors IBMX and Ro 20-1724 (final concentration of each inhibitor […]). Following 15 min pre-incubation, the cells were treated with EC80 concentration of agonist PGE2 for 30 min to induce cAMP. Final volume of the assay was 6 μL and DMSO concentration was maintained at 1%. The reaction was terminated with the addition of cAMP labeled with the dye d2 in lysis buffer according to manufacturers' protocol. This was followed by the addition of the anti-cAMP antibody labeled with Cryptate according to the manufacturers' protocol. The reaction was incubated at room temperature in dark for 45 min and the plate was evaluated for fluorescence at 665 nm (FRET) and 620 nm (cryptate emission) on a Flexstation III microplate reader (Molecular Devices, Sunnyvale, Calif.) Ex max: 313 nm; Em1: 620 nm; Em2: 665 nm. Data was analyzed using GraphPad Prism 5 (GraphPad Software Inc., San Diego, Calif.) where cells treated with agonist (EC80) was normalized to 0% inhibition of hEP4 and cells treated with buffer (no agonist) was normalized to 100% inhibition of hEP4. IC50 of NCEs was generated using non-linear regression—Log(inhibitor) vs. response equation in GraphPad Prism 5.
A general note: TR-FRET usually uses a lanthanide donor and a delayed reading to cut background.

The target in the next assay is T2, human EP4 receptor (Homo sapiens, UniProt P35408).
T2 construct: expressed in transfected cells; host or cells: FreeStyle293 (HEK293F) cells, transient transfection with pcDNA3.1(+), total membrane fraction
T2 sequence (P35408 whole entry): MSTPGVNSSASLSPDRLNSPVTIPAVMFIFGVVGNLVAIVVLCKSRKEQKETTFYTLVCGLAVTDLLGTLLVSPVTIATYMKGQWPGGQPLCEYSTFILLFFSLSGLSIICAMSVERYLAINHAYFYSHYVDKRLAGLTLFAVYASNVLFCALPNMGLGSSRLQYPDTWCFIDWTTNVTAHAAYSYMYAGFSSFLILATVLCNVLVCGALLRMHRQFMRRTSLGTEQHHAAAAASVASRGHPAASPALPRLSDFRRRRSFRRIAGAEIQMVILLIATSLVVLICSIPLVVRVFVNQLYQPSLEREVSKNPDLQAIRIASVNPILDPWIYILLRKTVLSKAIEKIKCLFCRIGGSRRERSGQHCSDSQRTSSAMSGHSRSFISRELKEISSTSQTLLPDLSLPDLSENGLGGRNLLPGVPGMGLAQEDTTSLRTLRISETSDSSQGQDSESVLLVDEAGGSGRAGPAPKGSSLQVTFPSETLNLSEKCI
Kind of assay: hEP4 radioligand binding assay ([3H] PGE2 competitive binding, membrane fractions). The settings on record: 300 nM compound; 1 nM [3H] PGE2. An excerpt:
The full-length coding sequences for human EP1 (NM_000955), human EP2 (NM_000956), human EP3 (NM_198717) and human EP4 (NM_000958) were cloned into pcDNA3.1(+) vector (Life Technologies, CA, USA). In order to prepare overexpressed EP 1-4 membrane in Freestyle293 cells (Life Technologies, CA, USA), the pcDNA3.1(+) vector encoding a cDNA of the relevant gene was transiently transfected into FreeStyle293 cells using 293Fectin (Life Technologies, CA, USA) according to the manufacturer instruction manual. After 2 days, cultured cells were centrifuged (1,000×g, 10 min, 4° C.) and pellets homogenized by a probe sonicator (Sonics vibracell, Sonics and Materials Inc., USA; 31% Amp, 5 sec pulse, Imin interval, 4 cycles) in ice-cold 50 mM Tris-HCl buffer (pH 7.5 at 25° C.) containing 0.5 mM EDTA, 250 mM Sucrose and 10 mM MgCl2. Cell homogenates were centrifuged (890×g, 10 min, 4° C.), and the supernatant was recovered. Total membrane fractions were isolated by ultracentrifugation (140,000×g, 60 min, 4° C.). Pellets were re-suspended in the same buffer, and stored at −80° C. until use. The protein concentration in homogenate was determined with the BCA Protein Assay Kit (Pierce Biotechnology, Inc., IL, USA) according to the manufacturer protocol.
The binding affinity of the compounds was evaluated using a competitive radioligand binding assay which measured the specific binding of [3H] PGE2 to the human EP4 receptor. Briefly, varying concentrations of NCEs were incubated with cell membrane fractions generated HEK293F cells transiently transfected with human EP4 receptor as described above. Each reaction consisted of 10 μg membrane protein and NCE in 50 mM Tris-HCl, pH-6.0 by NaOH, 10 mM MgCl2 and 0.5 mM EDTA assay buffer. Radioligand, [3H] PGE2 (American Radiochemicals Inc. Specific Activity 180 Ci/mmol), at a final of 1 nM was added to each reaction where the final assay volume was 200 μL and concentration of DMSO was adjusted to 1%. Appropriate controls included total binding in the assay (vehicle control) and control for non-specific binding. Non-specific binding was evaluated by incubating the hEP4 protein with 10 μM unlabeled PGE2 under the same assay conditions as NCEs. The reaction was incubated at room temperature for 2 hours and terminated by harvesting the reaction contents to a PEI coated GF/C filter plate (PerkinElmer). The plate was washed four times with cold 50 mM Tris-HCl, pH-7.5 wash buffer and dried at 50° C. for 2 hours or at 37° C. overnight. [3H] PGE2 bound to the protein was quantified by the addition of 25 μL of Microscint PS (PerkinElmer) and plate was read on MicroBeta2 liquid Scintillation and luminescence counter (PerkinElmer). Data was analyzed using GraphPad Prism 5 (GraphPad Software Inc., San Diego, Calif.) where non-specific binding was normalized to 0% specific binding of [3]PGE2 and vehicle control (DMSO) was normalized to 100% specific binding of [3]PGE2. Binding affinity of NCEs, Ki, was generated using One site—Fit Ki equation in GraphPad Prism 5.

T1 sequence (P35408 whole entry): as above

Turning to `Cc1cccc(CN2CCOc3ccnc(NC4(c5ccc(C(=O)O)cc5)CC4)c32)c1` [Example B25, 4-[1-[[4-(m-tolylmethyl)-2,3-dihydropyrido[4,3-b][1,4]oxazin-5-yl]amino]cyclopropyl]benzoic acid], the inhibition at 1 µM in assay [1] came out at 79%. At 0.3 µM the inhibition on human EP4 receptor was 98%.
On the same counts, the results for `Cc1ccc(CN2CCOc3ccnc(NC4(c5ccc(C(=O)O)cc5)CC4)c32)cc1` [Example B26, 4-[1-[[4-(p-tolylmethyl)-2,3-dihydropyrido[4,3-b][1,4]oxazin-5-yl]amino]cyclopropyl]benzoic acid] are 87% and 93%.
The matching figures for `C[C@H](Nc1nccc2c1N(Cc1ccc3ccccc3c1)CCO2)c1ccc(C(=O)O)cc1` [Example B29, 4-[(1S)-1-[[4-(2-naphthylmethyl)-2,3-dihydropyrido[4,3-b][1,4]oxazin-5-yl]amino]ethyl]benzoic acid]: 96% and 100%.
On the same counts, the results for `C[C@H](Nc1nccc2c1N(Cc1ccc(-c3ccccc3)cc1)CCO2)c1ccc(C(=O)O)cc1` [Example B30, 4-[(1S)-1-[[4-[(4-phenylphenyl)methyl]-2,3-dihydropyrido[4,3-b][1,4]oxazin-5-yl]amino]ethyl]benzoic acid] are 77% and 87%.
`C[C@H](Nc1nccc2c1N(Cc1ccc(C(F)(F)F)o1)CCO2)c1ccc(C(=O)O)cc1` [Example B31, 4-[(1S)-1-[[4-[[5-(trifluoromethyl)-2-furyl]methyl]-2,3-dihydropyrido[4,3-b][1,4]oxazin-5-yl]amino]ethyl]benzoic acid] registered an inhibition at 1 µM in assay [1] of 98%. Besides, at human EP4 receptor, at 0.3 µM the inhibition was 92%.
In assay [1], `C[C@@H](Nc1nccc2c1N(Cc1ccc(C(F)(F)F)cc1)CCO2)c1ccc(C(=O)O)cc1` [Example B32, 4-[(1R)-1-[[4-[[4-(trifluoromethyl)phenyl]methyl]-2,3-dihydropyrido[4,3-b][1,4]oxazin-5-yl]amino]ethyl]benzoic acid] yielded an inhibition at 1 µM of 47%. At human EP4 receptor, this molecule yielded an inhibition at 0.3 µM of 53%.
The matching figures for `C[C@@H](Nc1nccc2c1N(Cc1cccc(Cl)c1)CCO2)c1ccc(C(=O)O)cc1` [Example B33, 4-[(1R)-1-[[4-[(3-chlorophenyl)methyl]-2,3-dihydropyrido[4,3-b][1,4]oxazin-5-yl]amino]ethyl]benzoic acid]: 36% and 66%.
On the same counts, the results for `C[C@H](Nc1nccc2c1N(Cc1ccc(C(F)(F)F)cc1)CCC2)c1ccc(C(=O)O)cc1` [Example B37, 4-[(1S)-1-[[1-[[4-(trifluoromethyl)phenyl]methyl]-3,4-dihydro-2H-1,7-naphthyridin-8-yl]amino]ethyl]benzoic acid] are 97% and 97%.
On the same counts, the results for `C[C@H](Nc1nccc2c1N(CC1CCCCC1)CCO2)c1ccc(C(=O)O)cc1` [Example B39, 4-[(1S)-1-[[4-(cyclohexylmethyl)-2,3-dihydropyrido[4,3-b][1,4]oxazin-5-yl]amino]ethyl]benzoic acid] are 93% and 100%.
For the molecule `C[C@H](Nc1nccc2c1N(CCc1cccc(Cl)c1)CCO2)c1ccc(C(=O)O)cc1` [Example B40, 4-[(1S)-1-[[4-[2-(3-chlorophenyl)ethyl]-2,3-dihydropyrido[4,3-b][1,4]oxazin-5-yl]amino]ethyl]benzoic acid], in assay [1], the inhibition at 1 µM came to 85%. The same molecule yielded an inhibition at 0.3 µM on human EP4 receptor of 80%.
Molecule `C[C@H](Nc1nccc2c1N(Cc1ccc(F)c(F)c1)CCC2)c1ccc(C(=O)O)cc1` [Example B44, 4-[(1S)-1-[[1-[(3,4-difluorophenyl)methyl]-3,4-dihydro-2H-1,7-naphthyridin-8-yl]amino]ethyl]benzoic acid] displayed an inhibition at 1 µM in assay [1] of 92%. This molecule also showed an inhibition at 0.3 µM at human EP4 receptor of 93%.
The matching figures for `C[C@H](Nc1nccc2c1N(Cc1cccc(Cl)c1)CCC2)c1ccc(C(=O)O)cc1` [Example B45, 4-[(1S)-1-[[1-[(3-chlorophenyl)methyl]-3,4-dihydro-2H-1,7-naphthyridin-8-yl]amino]ethyl]benzoic acid]: 98% and 100%.
The matching figures for `Cc1cnc(N[C@@H](C)c2ccc(C(=O)O)cc2)c2c1OCCN2Cc1cccc(C(F)(F)F)c1` [Example B46, 4-[(1S)-1-[[8-Methyl-4-[[3-(trifluoromethyl)phenyl]methyl]-2,3-dihydropyrido[4,3-b][1,4]oxazin-5-yl]amino]ethyl]benzoic acid]: 95% and 87%.
On the same counts, the results for `C[C@H](Nc1nccc2c1N(Cc1ccc(C(F)(F)F)cc1)CCO2)c1ccc(C(N)=O)cc1` [Example D1, 4-[(1S)-1-[[4-[[4-(Trifluoromethyl)phenyl]methyl]-2,3-dihydropyrido[4,3-b][1,4]oxazin-5-yl]amino]ethyl]benzamide] are 98% and 85%.
In assay [1], `CONC(=O)c1ccc([C@H](C)Nc2nccc3c2N(Cc2ccc(C(F)(F)F)cc2)CCO3)cc1` [Example D2, N-Methoxy-4-[(1S)-1-[[4-[[4-(trifluoromethyl)phenyl]methyl]-2,3-dihydropyrido[4,3-b][1,4]oxazin-5-yl]amino]ethyl]benzamide] returned an inhibition at 1 µM of 92%. Moreover, the inhibition at 0.3 µM at human EP4 receptor is 87%.
On the same counts, the results for `CNC(=O)c1ccc([C@H](C)Nc2nccc3c2N(Cc2ccc(C(F)(F)F)cc2)CCO3)cc1` [Example D3, N-methyl-4-[(1S)-1-[[4-[[4-(trifluoromethyl)phenyl]methyl]-2,3-dihydropyrido[4,3-b][1,4]oxazin-5-yl]amino]ethyl]benzamide] are 84% and 73%.
The matching figures for `CCONC(=O)c1ccc([C@H](C)Nc2nccc3c2N(Cc2ccc(C(F)(F)F)cc2)CCO3)cc1` [Example D4, N-ethoxy-4-[(1S)-1-[[4-[[4-(trifluoromethyl)phenyl]methyl]-2,3-dihydropyrido[4,3-b][1,4]oxazin-5-yl]amino]ethyl]benzamide]: 93% and 92%.
In assay [1], `C[C@H](Nc1nccc2c1N(Cc1ccc(C(F)(F)F)cc1)CCO2)c1ccc(C(=O)NOCc2ccccc2)cc1` [Example D5, N-benzyloxy-4-[(1S)-1-[[4-[[4-(trifluoromethyl)phenyl]methyl]-2,3-dihydropyrido[4,3-b][1,4]oxazin-5-yl]amino]ethyl]benzamide] showed an inhibition at 1 µM of 90%. This molecule also registered an inhibition at 0.3 µM at human EP4 receptor of 88%.
